Reference: patent publication US10392422B2, “Macrocyclic broad spectrum antibiotics” (priority 2014, dated 2019)

Test system: MRSA strain USA300
Assay: Checkerboard synergy assay (2D MIC) with imipenem
Format: cell-based, Staphylococcus aureus
Details: many points of the isobologram (FIG. 1); synergy defined as sum of the FICs ≤0.5; 35° C., 22 hours
Experimental: 2D MIC assay or “checkerboard assays” are the most common method used to quantify synergistic or antagonistic interactions between two antibiotics with respect to potency (Hallander, H. O., et al., Antimicrob. Agents Chemother. 1982 22:743-752). In this assay in each axis of a 96-well plate contains a 2-fold dilution of a given agent, such that each well contains a unique combination of the agents being tested.
To create a checkerboard dilution scheme, imipenem was diluted in Mueller Hinton II Broth+0.002% Tween-80 to twice the final desired concentration, and six 2-fold serial dilutions were performed in the same media yielding seven imipenem concentrations. Dilutions of Compound 155 were prepared similarly except that ten dilutions were performed for a total of eleven concentrations. […]
MRSA strain USA300 was grown overnight at 35° C. on Mueller Hinton Agar plates, and colonies were suspended in Mueller Hinton II Broth+0.002% Tween-80 to a final density of 1*10^7 cfu/ml. […] The plate was incubated at 35° C. for 22 hours after which growth was determined via visual inspection. For each sub-MIC concentration of imipenem, the concentration of Compound 155 required to prevent visible growth was recorded, and the fractional inhibitor concentration (FIC) of each agent was calculated by dividing the concentration of each agent by MIC of the agent alone. […]

SMILES: CCCCCCCCCCNCCC(=O)N[C@@H](CCCCN)C(=O)N(C)[C@@H]1C(=O)N[C@@H](C)C(=O)N[C@H](C(=O)N[C@@H](C)C(=O)N2CCC[C@H]2C(N)=O)Cc2ccc(O)c(c2)-c2cc1ccc2O.O=CO [Compound 155]
- sum of the FICs (fractional inhibitor concentration) of Compound 155 and imipenem: < 0.5
